Where two headings read alike, the source gives them in different places.
Assays:
[1] = test system: E. rostratum hyphal fragments; assay: hyphal fragment fungicidal ATP content assay (PBS, 1536-well); type: cell-based, Exserohilum rostratum; conditions: for Emax / Hyphae % Max. Resp. / Hyphae % M. Res.: 46 µM Amphotericin B = 100%
Experimental: (§1) Conidia and hyphae of E. rostratum were obtained as described by Richard et al., with the following modifications. Briefly, conidia were harvested from Potato Dextrose Agar (PDA) cultured media with 0.05% Tween 80, and the conidial suspension was filtered using a Cell Strainer (100 µm, BD Falcon REF 352340). After centrifugation at 700g for 10 min, the suspension was decanted and conidia were resuspended at 1×10^5 per ml in RPMI and counted in a hemocytometer. Hyphae were harvested from yeast extract peptone dextrose (YPD) culture media with 0.05% Tween 80. Hyphal fragments were sized by vortexing 15 sec twice with 0.4 mm glassbeads, and the hyphae suspension was filtered by cheese cloth twice. […] To normalize concentrations of hyphal fragments for batch to batch consistency, carbohydrate analysis was performed by a phenol-sulfuric acid method as previously described. The final stock concentration of hyphae was adjusted to 1.0 (OD490) per 100 µl.
(§2) The ATPLite assay kit, consisting of luciferase/luciferin and detergent, was used to quantitate cellular ATP levels as a marker for cell viability (Table 1). For assay development, hyphal fragments or conidia in PBS were plated in a seeding density of 3,750, 7,500 and 15,000 cellular particles/well with a final volume of 5 µl/well using the Multidrop-Combi dispenser in white 1536-well plates. Conidia or hyphae fragments were incubated for 24 h at 37°C in a 5% CO2 humidified atmosphere. ATPLite detection reagents were added at 4 µl/well. The assay plates were incubated at room temperature for 15 minutes before reading luminescence intensity on a ViewLux plate reader (Perkin Elmer, Waltham, MA). Conidia suspended in RPMI medium were inoculated at concentrations of 62.5, 125 and 250 conidia/well with a final volume of 5 µl/well in white 1536-well plates. The conidia assay was developed and optimized in the same way as the hyphal assay.
(§3) The LOPAC library (Sigma-Aldrich) has been extensively used for HTS assay validations, [18]. The NIH Chemical Genomics Center Pharmaceutical (NPC) collection was constructed in-house through a combined effort of compound purchasing and custom synthesis and recently expanded to 4096 compounds. […] 2.5 µl/well PBS was dispensed into 1536-well plates using a Multidrop-Combi dispenser. Compound in DMSO solution was transferred in a volume of 23 nl/well using a NX-TR pintool station (WAKO Scientific Solutions, San Diego, CA). This additional PBS step for compound addition was designed to prevent the potential fungal contamination of compound libraries. The hyphal fragments in PBS were then added at 2.5 µl/well for a final seeding density of 15,000 hyphal fragments/well using the Multidrop-Combi dispenser. The final compound concentration was 46 µM in the primary screen. The assay plates were incubated for 24 h at 30°C before the detection of cellular viability with the ATP content assay. Screen of conidia was performed in a similar way except that PBS was replaced with RPMI medium and conidia were plated for a final seeding density of 250 conidia/well.
(§4) The primary screen data and curve fitting were analyzed using software developed internally at the NIH Chemical Genomics Center (NCGC). Total signals for cellular viability (100% cellular viability) were calculated from the wells with DMSO solvent and the complete cell killing (0% cellular viability) was calculated from 46 µM amphotericin B treated wells. […] All values were expressed as the mean +/− SD (n≥3).

[2] = test system: E. rostratum hyphal fragments; assay: colony formation assay of hyphal fragments; type: cell-based, Exserohilum rostratum; conditions: 2 times respective IC50, 37°C, 24 h; p<0.01
Experimental: 10 µl of hyphal suspension (processed as described above) was transferred to 1.7 mL microfuge tubes, each containing 28 nM amphotericin B, 242 nM posaconazole, or 10% DMSO in 1 ml PBS. Tubes containing hyphae and drug were incubated at 37°C in a shaking incubator for 24 h, then 200 µl of the hyphae drug suspension was spread on Yeast Extract Peptone Dextrose (YPD) plates for 24 h at 30°C and the number of colony forming units were scored. The experiments were performed in triplicate.
Mixtures were cultured at 37°C in a shaking incubator for 24 h, then the hyphal suspensions were inoculated on Yeast Extract Peptone Dextrose (YPD) plates that were incubated for 1 day. The number of colonies on each YPD plate was counted.

SH-SY5Y cells = assay: SH-SY5Y cytotoxicity counter-screen (ATP content assay); type: cell-based, Human; conditions: for SH-SY5Y % Max. Resp.: Table 2, SH-SY5Y, inact. = no significant activity at 46 µM; for cytotoxicity in SH-SY5Y mammalian cells: concentration up to 46 µM; for SH-SY5Y % M. Res.: Inact. = no significant activity at 46 µM
Experimental: Human neuroblastoma SH-SY5Y cell line (Catalog No. CRL-2266) was purchased from ATCC (Manassas, VA). SH-SY5Y cell line was cultured in 175-cm^2 tissue culture flasks (Costar, Cambridge, MA) with 30 ml of growth medium at 37°C in a 5% CO2 humidified atmosphere. Growth medium was made with Dulbecco's Modified Eagle Medium: Nutrient Mixture F-12 with 10% fetal bovine serum (FBS). Growth medium was replaced every other day and cells were passed at 75% confluence.
as §2
Two small known compound libraries including the LOPAC (1280 compounds) and approved drugs (4096 compounds) were screened in parallel using the above optimized assays for hyphae and conidia in 1536-well plates (Fig. 4). […] A mammalian SH-SY5Y cell line was used in parallel as a counter-screen with the same ATP content assay kit to assess the specificity of these compounds for E. rostratum.

E. rostratum conidia = assay: conidia growth inhibition ATP content assay (RPMI, 1536-well); type: cell-based, Exserohilum rostratum; conditions: for Emax: read-out: Conidia % Max. Resp.; for Conidia % M. Res.: Inact. = no significant activity at 46 µM
Experimental: as §1, §2, §3, §4

[3] = Exserohilum rostratum, Figure 5, read-out: IC50 Hyphae
[4] = Exserohilum rostratum, Table 2, inact. = no significant activity in the primary screen, read-out: Hyphae % Max. Resp.
[5] = Exserohilum rostratum, Table 2, 24 h, inact. = no significant activity in the primary screen, read-out: Hyphae IC50
[6] = Exserohilum rostratum, 24 h, Table 2, 24 h, inact. = no significant activity at the highest compound concentration (46 µM), read-out: Conidia IC50
[7] = Exserohilum rostratum, Figure 5, read-out: IC50 Conidia
[8] = Exserohilum rostratum, Table 2, 46 µM Amphotericin B = 100%, inact. = no significant activity at 46 µM
[9] = Table 2, inact. = no significant activity in the primary screen
[10] = Table 2, 24 h, inact. = no significant activity in the primary screen
[11] = Table S1, Inact. = no significant activity in the primary screen
[12] = Table S1, 46 µM Amphotericin B = 100%
[13] = Table S1, Inact. = no significant activity at the highest compound concentration (46 µM)
[14] = Exserohilum rostratum, Table S1, Inact. = no significant activity in the primary screen, read-out: Hyphae % M. Res.
[15] = Exserohilum rostratum, Table S1, Inact. = no significant activity in the primary screen, read-out: Hyphae IC50

Row | SMILES | SH-SY5Y % Max. Resp. (SH-SY5Y cells; 46 µM Amphotericin B = 100%) | SH-SY5Y % Max. Resp. (SH-SY5Y cells) | IC50 (E. rostratum conidia; [6]) | Emax (E. rostratum conidia; [8]) | Hyphae % Max. Resp. [1, 9] | Hyphae IC50 [1, 10] | SH-SY5Y % M. Res. (SH-SY5Y cells; [12]) | SH-SY5Y IC50 (SH-SY5Y cells; [13]) | Conidia % M. Res. (E. rostratum conidia; [12]) | Conidia IC50 (E. rostratum conidia; [13]) | other results
1 | N#C/C(=C1/SCC(c2ccccc2Cl)S1)n1ccnc1 (centres unmarked) [Lanoconazole] | inact. | inact. | 380 nM | 103% |  |  |  |  |  |  | IC50 [1, 3]: 459 nM; Emax [1, 4]: 65%; IC50 [1, 5]: 203 nM; hyphae-derived colony forming units (CFU) compared to DMSO control [2]: significantly reduced; cytotoxicity in SH-SY5Y mammalian cells (SH-SY5Y cells): no significant cytotoxicity; IC50 (E. rostratum conidia; [7]): 818 nM
2 | Oc1c(I)cc(I)c2cccnc12 [Iodoquinol] | 58% | 26.3% | 2750 nM | 99% | inact. | inact. |  |  |  |  | 
3 | Cc1cc(O)c2c(c1)O[C@@]1(C)CC[C@H]3C(C)(C)CCC[C@]34CO[C@@H]2[C@H]41 [Siccanin] |  |  |  |  |  |  | Inact. | Inact. | Inact. | Inact. | Hyphae % M. Res. [1, 11]: Inact.; Hyphae IC50 [1, 11]: Inact.
4 | CCC(C)n1ncn(-c2ccc(N3CCN(c4ccc(OCC5COC(Cn6cncn6)(c6ccc(Cl)cc6Cl)O5)cc4)CC3)cc2)c1=O (centres unmarked) [Itraconazole] | inact. | inact. | 1240 nM | 100% |  |  |  |  |  |  | IC50 [1, 3]: 1970 nM; Emax [1, 4]: 80%; IC50 [1, 5]: 2190 nM; hyphae-derived colony forming units (CFU) compared to DMSO control [2]: significantly reduced; cytotoxicity in SH-SY5Y mammalian cells (SH-SY5Y cells): no significant cytotoxicity; IC50 (E. rostratum conidia; [7]): 1270 nM
5 | Cc1ccc2c(Br)cc(Br)c(O)c2n1 [Broquinaldol] | inact. | inact. | 7750 nM | 101% | inact. | inact. |  |  |  |  | 
6 | O=C1[O][Pt]2([NH][C@@H]3CCCC[C@H]3[NH]2)[O]C1=O [Oxaliplatin] | inact. | inact. |  |  | 76% |  |  |  |  |  | IC50 ([1]; Table 2, 24 h, inact. = no significant activity in the primary screen, read-out: Hyphae IC50): 935 nM; Conidia % Max. Resp. (E. rostratum conidia; Table 2, 46 µM Amphotericin B = 100%, inact. = no significant activity at 46 µM): 95%; IC50 (E. rostratum conidia; read-out: Conidia IC50): 4950 nM
7 | CCCCCCC(=O)CCCCCC/C=C/C[C@@H](O)[C@H](O)[C@@](N)(CO)C(=O)O [Myriocin] | inact. | inact. | 13600 nM | 92% |  |  |  |  |  |  | Emax [1, 4]: 81%; IC50 [1, 5]: 2750 nM
8 | Clc1ccc(C2(Cn3cncn3)OCCO2)c(Cl)c1 [Azaconazole] |  |  |  |  |  |  | Inact. |  | Inact. |  | Emax [1, 14]: 64%; IC50 [1, 15]: 46900 nM; SH-SY5Y IC50 (SH-SY5Y cells): Inact.; Conidia IC50 (E. rostratum conidia): Inact.
9 | COC1=CC(=O)C[C@@H](C)[C@]12Oc1c(Cl)c(OC)cc(OC)c1C2=O [Griseofulvin] |  |  |  |  |  |  | Inact. | Inact. | Inact. | Inact. | Hyphae % M. Res. [1, 11]: Inact.; Hyphae IC50 [1, 11]: Inact.
10 | Oc1c(I)cc(Cl)c2cccnc12 [Clioquinol] | 60% | 37.2% | 975 nM | 103% | inact. | inact. |  |  |  |  | 
11 | CCCCCCCCCC(=O)NO [Decanohydroxamic acid] |  |  |  |  |  |  | Inact. | Inact. | Inact. | Inact. | Hyphae % M. Res. [1, 11]: Inact.; Hyphae IC50 [1, 11]: Inact.
12 | CCCCCCOc1ccccc1C(N)=O [Exalamide] |  |  |  |  |  |  | Inact. | Inact. | Inact. | Inact. | Hyphae % M. Res. [1, 11]: Inact.; Hyphae IC50 [1, 11]: Inact.
13 | Oc1c(Cl)cc(Cl)c(Cl)c1Cc1c(O)c(Cl)cc(Cl)c1Cl [Hexachlorophene] | inact. | inact. |  |  | inact. | inact. |  |  |  |  | IC50 (E. rostratum conidia; Exserohilum rostratum, 24 h, read-out: Conidia IC50): 3970 nM; Emax (E. rostratum conidia; Exserohilum rostratum): 109%
14 | C[C@@H]1C/C=C/C=C/C=C/C=C/[C@H](O[C@@H]2O[C@H](C)[C@@H](O)[C@H](N)[C@@H]2O)C[C@@H]2O[C@](O)(C[C@@H](O)C[C@H]3O[C@@H]3/C=C/C(=O)O1)C[C@H](O)[C@H]2C(=O)O [Natamycin] |  |  |  |  |  |  | Inact. | Inact. | Inact. | Inact. | Emax [1, 14]: 66%; IC50 [1, 15]: 46900 nM
15 | CCCCCCCCCCCCCC[N+](C)(C)C [Tetradonium bromide] | inact. | inact. | 2440 nM | 103% | inact. | inact. |  |  |  |  | 
16 | CC(C)(C)c1cc(/C=C(\C#N)C(N)=S)cc(C(C)(C)C)c1O [Tyrphostin AG 879] | inact. | inact. | 6160 nM | 92% | inact. | inact. |  |  |  |  | 

Source: publication PMC3749181, “Rapid Identification of Antifungal Compounds against Exserohilum rostratum Using High Throughput Drug Repurposing Screens” (PLoS ONE, 2013)
